This is an account of results in patent US7709497B2, “Pyrazolo[3,4-b]pyridine compound, and its use as a PDE4 inhibitor” (Glaxo Group Limited, priority 2004, dated 2010).

One experiment has as its target PDE5 (human recombinant) (Homo sapiens, UniProt O76074). Description: PDE5 inhibition (SPA or modified FP assay). It counts as biochemical. The following applies: n = 1; accuracy ±about 0.5 log unit; read-out: PDE5 pIC50 (converted). An excerpt: Human recombinant PDE5 is disclosed in K. Loughney et al., “Isolation and characterisation of cDNAs encoding PDE5A, a human cGMP-binding, cGMP-specific 3′,5′-cyclic nucleotide phosphodiesterase”, Gene, 1998, 216, 139-147.
The ability of compounds to inhibit catalytic activity at PDE4B or 4D (human recombinant), PDE3 (from bovine aorta), PDE5 (human recombinant) or PDE6 (from bovine retina) can optionally be determined by Scintillation Proximity Assay (SPA) in a 96-well format.
Test compounds (as a solution in DMSO, preferably about 2 microliters (ul) volume of DMSO solution) are preincubated at ambient temperature (room temperature, e.g. 19-23° C.) in Wallac Isoplates (code 1450-514) with PDE enzyme in 50 mM Tris-HCl buffer pH 7.5, 8.3 mM MgCl2, 1.7 mM EGTA, 0.05% (w/v) bovine serum albumin for 10-30 minutes (usually 30 minutes). The enzyme concentration is adjusted so that no more than 20% hydrolysis of the substrate defined below occurs in control wells without compound, during the incubation. […] Bound radioactive product is measured using a WALLAC TRILUX 1450 Microbeta scintillation counter. […] Curves are analysed using ActivityBase and XLfit (ID Business Solutions Limited, 2 Ocean Court, Surrey Research Park, Guildford, Surrey GU2 7QB, United Kingdom) Results are expressed as pIC50 values. […]

The test system of experiment [1] is TNF-α (TNF-alpha) production in Human Whole Blood. Nature of the experiment: Inhibition of TNF-α production in Human Whole Blood. The following applies: LPS-stimulated, n=6, read-out: Inhibition of TNF-α production in Human Whole Blood pIC50 (converted). It counts as cell-based. The method, then:
This is an optional supplementary test, e.g. for potentially orally-administrable PDE4 inhibitors. Also, as the assay measures the effect of PDE4 inhibitors after loss by protein binding, it might also be relevant to externally-topically-administrable PDE4 inhibitors as protein-binding-loss of compound is possible during transport through the skin.
Test compounds are prepared as a ca. 10 mM stock solution in DMSO and a dilution series prepared in DMSO with 8 successive 3-fold dilutions, either directly from the 10 mM stock solution or from a more dilute solution in DMSO. The compound is added to assay plates using a Biomek Fx liquid handling robot.
Heparinised blood drawn from normal volunteers is dispensed (ca. 100 μl=ca. 100 ul) into microtitre plate wells containing ca. 0.5 or ca. 1.0 μl (ul, microliters) of an appropriately diluted test compound solution. […] Plasma TNFα content is determined by electrochemiluminescence assay using the IGEN technology (see below) or by enzyme linked immunosorbant assay (ELISA) (see below).
Ca. […] 50 μl (ul) of streptavidin/biotinylated anti-TNF-α antibody mix, ca. 25 μl ruthenium tagged anti-TNF-α monoclonal and ca. 100 μl PBS containing 0.1% bovine serum albumin are added to each well and the plates are sealed and shaken for ca. 2 hours before being read on an IGEN instrument. […]

With `CCn1ncc2c(NC3CCN(C(N)=O)CC3)c(C(=O)NCc3ccc(C)c(C)c3)cnc21` [compound of formula (I), 4-{[1-(aminocarbonyl)-4-piperidinyl]amino}-N-[(3,4-dimethylphenyl)methyl]-1-ethyl-1H-pyrazolo[3,4-b]pyridine-5-carboxamide], the IC50 was 490 nM on PDE5 (human recombinant) and 7.41 nM in experiment [1].
